According to US11666559B2, “Spiro-lactam compounds, process and uses thereof” (UNIVERSIDADE DE COIMBRA, priority 2017, dated 2023):

Tested on: HIV
Experiment: Anti-HIV activity evaluation (HIV type not specified)
Format: cell-based
Conditions: both CCR-tropic isolates and CXCR4-tropic isolates; concentration of 15.2 μM
Protocol: In an embodiment, TZM-bl cells (AIDS Research and Reference Reagent Program, National Institutes of Health, USA) were cultured in complete growth medium that consists of Dulbecco's minimal essential medium (DMEM) supplemented with 10% fetal bovine serum (FBS), 100 U/ml of penicillin-streptomycin (Gibco/Invitrogen, USA), 1 mM of sodium pyruvate (Gibco/Invitrogen, USA), 2 mM of L-glutamine (Gibco/Invitrogen, USA) and 1 mM of non-essential amino acids (Gibco/Invitrogen, USA).
In an embodiment, the primary isolates 93AOHDC249, 93AOHDC250, 01PTHDECJN and 03PTHCC9, used in this study were previously isolated, titrated and characterized for co-receptor usage. HIV reference strain SG3.1 was obtained by transfection of HEK293T cells with pSG3.1 (HIV-1) plasmid using Fugene 6 reagent (Roche, Switzerland) according to manufacturer's instructions.
In an embodiment, the 50% tissue culture infectious dose (TCID50) of the virus was determined in a single-round viral infectivity assay using a luciferase reporter gene assay in TZM-bl cells and calculated using the statistical method of Reed and Muench^27.
In an embodiment, the antiviral activity of the compounds was determined in a single-round assay with TZM-bl cells as previously described ^26. […] After 48 h of infection, luciferase expression was quantified with the One-Glow luciferase assay substrate reagent (Promega, USA) according to manufacturer's instructions. […] After an incubation of 3 minutes at room temperature to allow complete cell lysis luminescence was measured in Tecan Infinite M200. Background luminescence was measured by using control wells that contained only target cells and GM. […]
In an embodiment, dose-response curves were estimated from the percentage of inhibition of infection (y-axis) against logo of concentration of each compound (x-axis) using the sigmoidal dose-response equation (variable slope) in GraphPad Prism version 5.00 for Windows (GraphPad Software, San Diego Calif. USA, www.graphpad.com). IC50 and IC90 values were determined from this curve. […]

CC1(C)S[C@H]2N(C(=O)[C@]23CC=C(C(=O)OCc2ccccc2)[C@@H]3C(=O)c2ccccc2)[C@H]1C(=O)OC(c1ccccc1)c1ccccc1 [BSS-730A]
inhibition of the replication: about 100%
